Data taken from patent US20190127707A1, “MEDIUM FOR CULTURING NAIVE PLURIPOTENT STEM CELLS AND METHOD FOR CULTURING PLURIPOTENT STEM CELLS” (KYOWA HAKKO BIO CO., LTD., priority 2016, published 2019).

Key:
Tic-FX cells [1] = assay: Culturing of iPS cells in the presence of low molecular weight compounds (cell count); type: cell-based, human; details: 40 ng/mL FGF2, five days
Description: Media were produced by adding 1 μM of Y-27632, 20 ng/mL of LIF and 40 ng/mL of FGF2 to the basal medium, and media were produced by adding the following inhibitors to the media at concentrations of 1 μM (PD0325901), 0.3 μM (CHIR99021), 0.5 μM (SB590885), 1 μM (WH-4-023), 10 μM (SP600125), 10 μM (SB203580), 5 μM (Go6983), 5 μM (GF109203X), 2 μM (Porsomorphin) or 400 ng/mL (Noggin) each. The Tic-FX cells were proliferated in suspension culture in ultra-low attachment 6-well plates (manufactured by Coming Incorporated) containing the media in the presence of 10% CO2 at 37° C. The cells were cultured for five days, and the cells were counted. In FIG. 6, “−” indicates the results using the medium to which no inhibitor was added.

Tic-FX cells [2] = assay: Real-time PCR of pluripotency markers in cells proliferated with inhibitors; type: cell-based, human; details: 40 ng/mL FGF2, versus control Tic-FX
Excerpt: Cells cultured in the basal medium were used as the control (indicated by Tic-FX in FIG. 7A and FIG. 7B).

Tic-FX cells [3] = assay: Influence on proliferation of iPS cells in the presence of ROCK inhibitor (suspension culture); type: cell-based, human; details: Y-27632 at 1 μM, 3 μM or 10 μM in hESF-FX medium
Description: In the following Examples, a medium obtained by mixing the following components in the amounts shown in Table 1 which had been sterilized with a […] into mESF Basal Medium (manufactured by Wako Pure Chemical Industries, Ltd., 136-17805) was used as hESF-FX medium. As the iPS cells, Tic-FX cells [a cell line obtained by conditioning iPS cells, line Tic (JCRB1331) to a feeder-free xeno-free culture (FX)] were used. A ROCK inhibitor (Y-27632) was dissolved in the hESF-FX medium at 1 μM, 3 μM or 10μM. The media each in an amount of 3 mL were put into an ultra-low attachment 6-well plate (manufactured by Corning Incorporated), and the Tic-FX cells were cultured in the presence of 10% CO2 at 37° C. (suspension culture). The plate was observed after one day, three days and five days of cultivation. […] The numbers of the cells per well and the viability of the cells were measured after five days of cultivation.

Tic-FX cells [4] = assay: Real-time PCR of undifferentiation, naive type-specific and differentiation marker genes in cells of Example 1; type: cell-based, human; details: five days, relative to GAPDH; for expression level of NCAM / expression level of naive type-specific STELLA gene: versus control; for expression level of NANOG / expression level of OCT3/4: versus control Tic-FX
Description: The expression of marker genes was examined by real-time PCR. Real-time PCR was conducted using a real-time PCR system (7300 manufactured by Applied Biosystems) by the following reaction procedures using the following primers. 95° C. 30 seconds→[(95° C. 5 seconds→60° C. 31 seconds)×40 cycles]→Melting Cycle Using the cells cultured in Example 1, the expression levels of NANOG and OCT3/4, which are undifferentiation marker genes, […], which is a naive type-specific marker gene, and NCAM, which is a neuronal differentiation-specific marker gene, in the cells after five days of cultivation were examined by the real-time PCR. In FIG. 3A to FIG. 3D, the vertical axes each indicate the ratio of the expression level of the target gene of the sample to that of GAPDH (glyceraldehyde-3-phosphate dehydrogenase), which was used as the internal standard. Specifically, the values in the graphs each mean the relative value (unit is fold) of the DNA amount before the amplification determined from the difference between the Cp value of GAPDH and the Cp value of the target gene. Here, the internal standard is a gene whose expression level is always constant independently of the state of the cells. The Cp value is the number of cycles which are necessary to amplify DNA to the amount that can be detected with a measurement device when the DNA is amplified by PCR reaction (theoretically, the DNA amount doubles in one cycle).

human iPS cells = details: added to the medium; cells dispersed into single cells or clusters of several to several dozen cells; cited from earlier work
[5] = 0.3 μM added to medium with 1 μM Y-27632, 20 ng/mL LIF
[6] = 400 ng/mL added to medium with 1 μM Y-27632, 20 ng/mL LIF

With Cc1c[nH]c(-c2cnc(NCCNc3ccc(C#N)cn3)nc2-c2ccc(Cl)cc2Cl)n1 [CHIR99021, 6-{2-[4-(2,4-dichloro-phenyl)-5-(4-methyl-1H-imidazol-2-yl)-pyrimidin-2-ylamino]-ethylamino}-nicotinonitrile] the “growth rate of the cells” value (Tic-FX cells [1]; [5]) was “high”, the “expression level of NANOG” value (Tic-FX cells [2]; [5]) was “increased” and the “expression level of OCT3/4” value (Tic-FX cells [2]; [5]) was “increased”.

For C[C@@H](N)[C@H]1CC[C@H](C(=O)Nc2ccncc2)CC1.Cl.Cl [Y-27632, (+)-(R)-trans-4-(1-aminoethyl)-N-(4-pyridyl)cyclohexanecarboxamide dihydrochloride], the “number of the cells per well” value (Tic-FX cells [3]; after five days of cultivation) was “increased as the concentration of the ROCK inhibitor was higher”, the “viability of the cells” value (Tic-FX cells [3]; after five days of cultivation) was “increased as the concentration of the ROCK inhibitor was higher” and the “number of the cells (micrographs, FIG. 1A and FIG. 1B)” value (Tic-FX cells [3]; observed after one, three and five days) was “increased as the concentration of the ROCK inhibitor was higher”. The “expression level of NCAM” value (Tic-FX cells [4]; 1 μM) was “almost the same as that of the control”, the “expression level of naive type-specific STELLA gene” value (Tic-FX cells [4]; 1 μM) was “higher than that of the control” and the “expression level of NANOG” value (Tic-FX cells [4]; 1 μM) was “higher than those of the control”. The “expression level of OCT3/4” value (Tic-FX cells [4]; 1 μM) was “higher than those of the control”, the “expression level of NCAM” value (Tic-FX cells [4]; 3 μM) was “higher than that of the control” and the “expression level of naive type-specific STELLA gene” value (Tic-FX cells [4]; 3 μM) was “higher than that of the control”. For the same molecule, the “expression level of NANOG” value (Tic-FX cells [4]; 3 μM) was “higher than those of the control”, the “expression level of OCT3/4” value (Tic-FX cells [4]; 3 μM) was “higher than those of the control” and the “expression level of NCAM” value (Tic-FX cells [4]; 10 μM) was “higher than that of the control”. For the same molecule, the “expression level of naive type-specific STELLA gene” value (Tic-FX cells [4]; 10 μM) was “slightly higher than that of the control”, the “expression level of NANOG” value (Tic-FX cells [4]; 10 μM) was “lower than those of the control” and the “expression level of OCT3/4” value (Tic-FX cells [4]; 10 μM) was “lower than those of the control”. For the same molecule, the “apoptosis of human iPS cells” value (human iPS cells) was “suppresses the apoptosis” and the intercellular adhesion (human iPS cells) was “promotes the intercellular adhesion”.

B1: Noggin: Noggin, Recombinant Human, manufactured by R&D Systems; endogenous protein that inhibits BMP (protein, UniProt Q13253 28-232, looked up)
Noggin: QHYLHIRPAPSDNLPLVDLIEHPDPIFDPKEKDLNETLLRSLLGGHYDPGFMATSPPEDRPGGGGGAAGGAEDLAELDQLLRQRPSGAMPSEIKGLEFSEGLAQGKKQRLSKKLRRKLQMWLWSQTFCPVLYAWNDLGSRFWPRYVKVGSCFSKRSCSVPEGMVCKPSKSVHLTVLRWRCQRRGGQRCGWIPIQYPIISECKCSC
With B1 the “growth rate of the cells” value (Tic-FX cells [1]; [6]) was “high”, the “expression level of NANOG” value (Tic-FX cells [2]; [6]) was “increased” and the “expression level of OCT3/4” value (Tic-FX cells [2]; [6]) was “increased”.
